This is an account of results in the CATMoS acute toxicity set (Mansouri et al. 2021).

The nature of this data set: GHS categories as the set defines them, by LD50: 1 up to 5, 2 up to 50, 3 up to 300, 4 up to 2000, 5 above 2000 mg/kg. To be noted: rat; in vivo; po.
For `CO[C@@]1(NC(=O)Cc2cccs2)C(=O)N2C(C(=O)O)=C(COC(N)=O)CS[C@@H]21`, the GHS category worked out at 5.

In turn, `Cc1ccc2nc(-c3ccc(N)cc3)sc2c1S(=O)(=O)O` came in with a GHS category of 5.

`CC1Oc2cc(C(=O)c3ccc(Cl)cc3)ccc2NC1=O` (centres undefined) came in with a GHS category of 5.

On to `CCCCCCCCCCCCCCCCCCOC(=O)CCc1cc(C(C)(C)C)c(O)c(C(C)(C)C)c1`, for which the GHS category was 5.

On to `COc1cc(-c2cc(OC)cc(C(C)(C)C)c2O)c(O)c(C(C)(C)C)c1`, for which the GHS category is 5.

In the case of `CCCc1c(Cc2ccc(-c3ccccc3-c3nn[nH]n3)cc2)c(N=[N+]=[N-])nc2ncnn12`, the GHS category is 4.

In turn, `O=C1NC(=O)C(c2ccccc2)(c2ccccc2O)N1` (centres undefined) came in with a GHS category of 5.

The compound `CCCc1c(Cc2ccc(-c3sccc3-c3nn[nH]n3)cc2)c(=O)nc2nc[nH]n12` gave a GHS category of 4.

In turn, `Clc1cc(Cl)c2oc(C3(Cn4cncn4)OCCCO3)cc2c1` displayed a GHS category of 4.

`CN1C(=O)CCc2c(OCCCN3CCC(Cc4ccccc4)CC3)cccc21` showed a GHS category of 4.

Compound `CSCC[C@H](NC(=O)CCSC(=O)c1ccccc1)C(=O)OC(C)C` yielded a GHS category of 5.

The compound `CC(=O)OCC1=C(C(=O)O)N2C(=O)[C@@H](N)[C@H]2SC1` registered a GHS category of 5.

Compound `CC/C=C\CCCCCCCCOC(C)=O` yielded a GHS category of 5.

On to `C=C[C@](C)(O)CC[C@@H]1[C@@]2(C)CCCC(C)(C)[C@@H]2CC[C@@]1(C)O`, for which the GHS category amounted to 5.

Regarding `COc1ccc(C(=O)N2CCN(c3ccc4c(c3)CCC(=O)N4)CC2)cc1OC`, the GHS category stood at 5.

`O=C1OC(CN2CCCCC2)CC12CC(CN1CCCCC1)OC2=O` (centres undefined) displayed a GHS category of 5.

In the case of `CC/C=C\CCOC(C)=O`, the GHS category stood at 5.

`CN1C(=O)COc2cc(C(=O)C=Cc3ccc(Cl)cc3)ccc21` came in with a GHS category of 5.

`Cc1ccc2[nH]c3cc4c(=O)c5cc(C)ccc5[nH]c4cc3c(=O)c2c1` yielded a GHS category of 5.

For the compound `O=C1CC(N2C(=O)c3ccccc3C2=O)CC(=O)N1`, the GHS category was 5.

Turning to `CCOC(=O)CCN(C(=O)c1ccc2c(c1)nc(CCl)n2C)c1ccccn1`, the GHS category was 4.

`CCCCCC1Nc2cc(C(F)(F)F)c(S(N)(=O)=O)cc2S(=O)(=O)N1` (centres undefined) showed a GHS category of 5.

The compound `Cc1ccc(C2CC(=O)C(C(=O)CCc3ccc4c(c3)OCO4)C(=O)C2)cc1` (centres undefined) had a GHS category of 5.

Compound `CCCc1c(Cc2ccc(-c3ccccc3-c3nn[nH]n3)cc2)c(=O)nc2nc(C)[nH]n12` yielded a GHS category of 4.

With `CC12CCC(=O)C=C1CCC1C3CCC4(CCC(=O)O4)C3CCC12C` (centres undefined), the GHS category turned out to be 5.

On to `CCOP(=O)(CN(CCO)CCO)OCC`, for which the GHS category was 5.

As for `Cc1nc(Cl)cc(Nc2ncc(C(=O)Nc3c(C)cccc3Cl)s2)n1`, the GHS category was 5.

In the case of `CC(C)C[C@H]1C(=O)N2CCC[C@H]2[C@]2(O)O[C@](NC(=O)[C@@H]3C=C4c5cccc6[nH]c(Br)c(c56)C[C@H]4N(C)C3)(C(C)C)C(=O)N12`, the GHS category is on record as 5.

For the compound `COC(=O)CCCC(=O)OC`, the GHS category came to 5.

As to `Cc1cccc(C)c1N=C(O)c1cccnc1O`, the GHS category amounted to 5.

`Cc1c(C)c2c(c(C)c1O)CCC(C)(COc1ccc(CC3SC(=O)NC3=O)cc1)O2` (centres undefined) showed a GHS category of 5.

As for `CCCCC/C=C\C/C=C\CCCCCCCC(=O)NC(C)c1ccccc1` (centres undefined), the GHS category stood at 5.

In turn, `C=CC(C)(CCC=C(C)C)OC` (centres undefined) registered a GHS category of 5.

`FC(F)(F)OC(Cl)C(F)(Cl)Cl` (centres undefined) came in with a GHS category of 5.

For `CCCCOC(=O)c1ccc(-n2nc(OC)c3ccccc32)cc1`, the GHS category turned out to be 5.

`Cc1ccc(OP(=O)(Oc2ccccc2)Oc2ccccc2)cc1` gave a GHS category of 5.

Consider `CCCC(C)C=O` (centres undefined), for which the GHS category is on record as 5.

In turn, `CC(C)CCCCCC(=O)NCCCCCC(=O)O` gave a GHS category of 5.

With `OCCCOc1nn(-c2cccc(C(F)(F)F)c2)c2ncccc12`, the GHS category is 4.
